The record followed here is US20250101003A1, “SPIROCYCLIC CAV2.3 ANTAGONISTS” (LARIO THERAPEUTICS LIMITED, priority 2021, published 2025).

The target of experiment [1] is T1, Cav2.3 (Homo sapiens, UniProt Q15878). In words: Human Cav2.3 channel calcium-influx assay. The experiment is classed as cell-based. To be noted: HEK-293 T-Rex/Kir2.1/Cav2.3e-β4-α2δ1 cells, Fluo8 fluorescence, without pluronic acid; read-out: Cav2.3 (pIC50) (converted). In short, it runs like this: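 Doxycycline-induced HEK-293 T-Rex/Kir2.1 clone stably expressing Cav2.3e with β4-α2δ1, loaded with Fluo8 NW; compounds (8 points from 30 μM, half-log, 0.3% DMSO) preincubated 3 min at RT. Depolarized with 20 mM KCl/2 mM CaCl2; peak-minus-baseline fluorescence over 130 s normalized to neutral and inhibitor controls as % activity.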
Target sequence in this assay (Q15878 1-747 limits assumed): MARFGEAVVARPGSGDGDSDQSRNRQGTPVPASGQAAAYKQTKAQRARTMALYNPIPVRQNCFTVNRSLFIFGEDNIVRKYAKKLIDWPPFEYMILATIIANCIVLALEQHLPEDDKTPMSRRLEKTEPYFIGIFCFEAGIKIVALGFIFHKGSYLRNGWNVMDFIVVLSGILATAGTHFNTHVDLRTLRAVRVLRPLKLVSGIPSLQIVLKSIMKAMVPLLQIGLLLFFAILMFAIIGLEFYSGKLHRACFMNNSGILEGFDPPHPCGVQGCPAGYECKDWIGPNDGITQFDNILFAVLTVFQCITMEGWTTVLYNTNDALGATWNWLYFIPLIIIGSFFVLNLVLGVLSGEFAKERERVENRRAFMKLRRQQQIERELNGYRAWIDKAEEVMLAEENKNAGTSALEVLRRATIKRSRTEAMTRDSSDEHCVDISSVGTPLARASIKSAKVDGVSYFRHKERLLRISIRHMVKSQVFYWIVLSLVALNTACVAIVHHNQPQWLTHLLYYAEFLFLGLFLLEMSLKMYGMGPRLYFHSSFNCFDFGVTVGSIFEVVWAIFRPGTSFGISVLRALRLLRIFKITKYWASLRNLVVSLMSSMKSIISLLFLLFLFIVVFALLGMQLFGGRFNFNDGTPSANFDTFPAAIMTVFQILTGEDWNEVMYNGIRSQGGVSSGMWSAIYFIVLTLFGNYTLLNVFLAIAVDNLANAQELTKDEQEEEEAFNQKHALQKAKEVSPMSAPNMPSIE
Target sequence in this assay (Q15878 1126-2313 limits assumed): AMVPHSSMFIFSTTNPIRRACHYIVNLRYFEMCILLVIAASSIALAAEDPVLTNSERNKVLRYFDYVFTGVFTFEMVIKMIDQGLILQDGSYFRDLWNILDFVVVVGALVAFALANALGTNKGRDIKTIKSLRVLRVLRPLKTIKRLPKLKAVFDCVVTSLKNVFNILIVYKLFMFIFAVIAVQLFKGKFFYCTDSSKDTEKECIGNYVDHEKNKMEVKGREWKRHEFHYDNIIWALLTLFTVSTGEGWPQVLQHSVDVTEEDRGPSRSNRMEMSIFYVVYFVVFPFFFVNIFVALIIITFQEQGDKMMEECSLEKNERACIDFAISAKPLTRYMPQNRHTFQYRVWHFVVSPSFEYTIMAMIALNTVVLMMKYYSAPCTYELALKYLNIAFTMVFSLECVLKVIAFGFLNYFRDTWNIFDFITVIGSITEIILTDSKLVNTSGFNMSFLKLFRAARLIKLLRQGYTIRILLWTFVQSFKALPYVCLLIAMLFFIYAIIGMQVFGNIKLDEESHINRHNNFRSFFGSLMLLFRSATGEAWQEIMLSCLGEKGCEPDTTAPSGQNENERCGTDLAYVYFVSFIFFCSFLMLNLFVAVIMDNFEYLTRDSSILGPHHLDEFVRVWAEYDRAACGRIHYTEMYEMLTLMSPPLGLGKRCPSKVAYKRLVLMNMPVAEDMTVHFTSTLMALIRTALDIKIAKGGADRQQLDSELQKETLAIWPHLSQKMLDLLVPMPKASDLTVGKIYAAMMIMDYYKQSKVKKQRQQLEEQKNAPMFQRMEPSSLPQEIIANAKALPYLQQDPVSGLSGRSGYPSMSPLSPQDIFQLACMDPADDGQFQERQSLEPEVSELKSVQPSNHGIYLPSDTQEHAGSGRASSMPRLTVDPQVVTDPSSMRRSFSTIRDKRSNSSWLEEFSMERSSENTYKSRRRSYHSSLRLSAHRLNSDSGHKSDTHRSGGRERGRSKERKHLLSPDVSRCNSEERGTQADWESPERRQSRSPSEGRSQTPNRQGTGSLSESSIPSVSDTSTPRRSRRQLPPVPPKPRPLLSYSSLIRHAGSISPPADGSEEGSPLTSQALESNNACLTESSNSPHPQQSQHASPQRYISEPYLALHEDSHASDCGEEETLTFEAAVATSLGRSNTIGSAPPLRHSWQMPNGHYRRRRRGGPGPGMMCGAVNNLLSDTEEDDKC

For experiment [2], the target named is T1, Cav2.3. As to the kind of experiment: Whole-cell patch clamp assay (QPatch 16X). In kind it is cell-based. To be noted: whole-cell voltage clamp, HEK-293 T-Rex/Kir2.1/Cav2.3e-β4-α2δ1 cells, room temperature; read-out: Cav2.3 (pIC50) (converted). As to the method:
HEK-293 T-Rex/Kir2.1/Cav2.3e-β4-α2δ1 cells were seeded 96 hours before experiment and doxycycline at 0.2 μg/mL was added 24 hours before experiment. Just before the experiments cells were washed twice with D-PBS w/o Ca2+/Mg2+ and gently detached from the flask with Detachin. Cells were then re-suspended in the suspension solution (25 mL EX-CELL ACF CHO medium; 0.25 mL of 100× Penicillin/Streptomycin) and placed on the Automated Patch-clamp platform (QPatch 16X).
Standard whole-cell voltage clamp experiments were performed at room temperature using the single hole technology and the following intracellular and extracellular solutions (ICS and ECS, respectively) were used. ICS (mM): CsF 60, CsCl 50, NaCl 10, EGTA 20, BAPTA 5, HEPES 10, NaGTP 0.3, MgATP 5 (pH 7.2; ECS (mM): NMDG-Cl 120, BaCl2 20, HEPES 10, EGTA 7 (pH 7.4). After establishment of the seal and the passage in the whole-cell configuration, the Cav2.3 dependent current was evoked by challenging the cells with the following voltage protocol: the plasma membrane was held at −80 mV then a 50 ms-long depolarizing pulse at 0 mV, followed by a 50 ms-long hyperpolarizing pulse at −100 mV were applied and finally the plasma membrane was held back to −80 mV. This voltage protocol was applied every 10 seconds. Cav2.3 dependent current was first measured in control condition (vehicle, 0.1% DMSO), in the presence of increasing concentration of the compound under investigation and finally SNX 482 was added to fully block any R-type Cav2.3 dependent current.
For data collection, the Sophion proprietary software was used while the analysis was performed off-line using Excel and GraphPad Prism. The inward current (Area Under Curve) measured during each depolarizing pulse was normalized to cell membrane capacitance (Cm) to obtain the average inward current density in each condition (control, compound under investigation and SNX 482). Then, the inhibitory effect of the compound under investigation was evaluated as % of the remaining inward current, normalized to the internal control. […] All data were expressed as mean±S.E
Target sequence in this assay (Q15878 1-747 limits assumed): as the sequence (Q15878 1-747 limits assumed) above
Target sequence in this assay (Q15878 1126-1966 limits assumed): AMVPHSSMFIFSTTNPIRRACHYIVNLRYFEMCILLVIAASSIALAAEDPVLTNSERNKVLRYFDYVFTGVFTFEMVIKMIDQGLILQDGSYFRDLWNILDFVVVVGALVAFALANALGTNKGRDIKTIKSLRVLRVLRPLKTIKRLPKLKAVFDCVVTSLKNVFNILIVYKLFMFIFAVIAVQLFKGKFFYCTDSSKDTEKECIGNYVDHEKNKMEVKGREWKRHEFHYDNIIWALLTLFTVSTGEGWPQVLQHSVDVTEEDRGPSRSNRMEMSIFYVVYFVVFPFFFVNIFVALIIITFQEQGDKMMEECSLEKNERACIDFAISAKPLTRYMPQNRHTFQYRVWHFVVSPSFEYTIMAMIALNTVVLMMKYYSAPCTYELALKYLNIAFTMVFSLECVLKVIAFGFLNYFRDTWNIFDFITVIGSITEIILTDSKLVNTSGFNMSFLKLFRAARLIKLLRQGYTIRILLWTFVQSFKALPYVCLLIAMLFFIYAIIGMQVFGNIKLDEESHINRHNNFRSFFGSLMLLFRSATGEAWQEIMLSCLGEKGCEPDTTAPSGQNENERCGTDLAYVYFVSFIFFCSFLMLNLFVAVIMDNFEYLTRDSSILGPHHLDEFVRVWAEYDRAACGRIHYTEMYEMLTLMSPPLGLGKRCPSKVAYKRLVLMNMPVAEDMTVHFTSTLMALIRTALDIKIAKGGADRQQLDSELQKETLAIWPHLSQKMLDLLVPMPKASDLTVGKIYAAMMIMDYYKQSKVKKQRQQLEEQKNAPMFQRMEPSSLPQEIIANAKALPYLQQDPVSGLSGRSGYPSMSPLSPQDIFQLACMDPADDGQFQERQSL
A general note: Patch clamp records ionic current or voltage across a cell membrane.

Consider `CC1CC2(CCC2)CN1S(=O)(=O)c1ccc2c(c1)CN(C(=O)c1ccccc1)CC2` (single isomer, unassigned) [Example 27, (7-((7-Methyl-6-azaspiro[3.4]octan-6-yl)sulfonyl)-3,4-dihydroisoquinolin-2(1H)-yl)(phenyl)methanone], for which the IC50 at Cav2.3 [1] is 0.851 µM; on Cav2.3 [2] it was 0.832 µM. Taken in the same sequence, the figures for `CC1CC2(CCC2)CN1S(=O)(=O)c1ccc2c(c1)CN(C(=O)c1ccccc1)CC2` (stereo not drawn) [Example 26, (7-((7-Methyl-6-azaspiro[3.4]octan-6-yl)sulfonyl)-3,4-dihydroisoquinolin-2(1H)-yl)(phenyl)methanone] were 1.1 µM and 0.525 µM. On to `CCOc1cc(S(=O)(=O)N2CC3(CCC3)CC2C)ccn1` (stereo not drawn) [Example 88, 6-((2-Ethoxypyridin-4-yl)sulfonyl)-7-methyl-6-azaspiro[3.4]octane], for which the IC50 on Cav2.3 [1] was 2.51 µM.

As for `CC1CC2(CCC2)CN1S(=O)(=O)c1cncc(C#N)c1` (stereo not drawn) [Example 111, 5-((7-methyl-6-azaspiro[3.4]octan-6-yl)sulfonyl)nicotinonitrile], the IC50 on Cav2.3 [1] is 1.95 µM. Same read-out and setting: with `COc1cc(S(=O)(=O)N2CC3(CCC3)CC2C)ccn1` (stereo not drawn) [Example 86, 6-((2-Methoxypyridin-4-yl)sulfonyl)-7-methyl-6-azaspiro[3.4]octane] the figure was 1.35 µM. Same read-out and setting: with `Cc1ccnc2cc(S(=O)(=O)N3CC4(CCC4)CC3C)ccc12` (single isomer, unassigned) [Example 81, 4-Methyl-7-((7-methyl-6-azaspiro[3.4]octan-6-yl)sulfonyl)quinoline] the figure was 4.57 µM; with `CCOc1ccc2nc(S(=O)(=O)N3CC4(CCC4)CC3C)sc2c1` (stereo not drawn) [Example 96, 6-Ethoxy-2-((7-methyl-6-azaspiro[3.4]octan-6-yl)sulfonyl)benzo[d]thiazole], 9.33 µM; with `CC1CC2(CCC2)CN1S(=O)(=O)c1cccc2c1OC(F)(F)O2` (stereo not drawn) [Example 41, 6-((2,2-Difluorobenzo[d][1,3]dioxol-4-yl)sulfonyl)-7-methyl-6-azaspiro[3.4]octane], 8.32 µM.

Regarding `CC1CC2(CCC2)CN1S(=O)(=O)c1ccco1` (stereo not drawn) [Example 36, 6-(Furan-2-ylsulfonyl)-7-methyl-6-azaspiro[3.4]octane], the IC50 at Cav2.3 [1] was 5.25 µM.

For `CC1CC2(CCC2)CN1S(=O)(=O)c1ccc2c(c1)CN(C(=O)C(F)(F)F)CC2` (single isomer, unassigned) [Example 20, 2,2,2-trifluoro-1-(7-((7-methyl-6-azaspiro[3.4]octan-6-yl)sulfonyl)-3,4-dihydroisoquinolin-2(1H)-yl)ethan-1-one], the IC50 at Cav2.3 [1] is 4.27 µM. Same read-out and setting: with `CC(C)C(=O)N1Cc2ccc(S(=O)(=O)N3CC4(CCC4)CC3C)cc2C1` (stereo not drawn) [Example 52, 2-methyl-1-(5-((7-methyl-6-azaspiro[3.4]octan-6-yl)sulfonyl)isoindolin-2-yl)propan-1-one] the figure was 2 µM.

On to `Cc1nc(C)c(S(=O)(=O)N2CC3(CCC3)CC2C)s1` (stereo not drawn) [Example 105, 2,4-Dimethyl-5-((7-methyl-6-azaspiro[3.4]octan-6-yl)sulfonyl)thiazole], for which, at Cav2.3 [1], the IC50 was 4.57 µM. Same read-out and setting: with `Cc1ccnc2cc(S(=O)(=O)N3CC4(CCC4)CC3C)ccc12` (stereo not drawn) [Example 80, 4-Methyl-7-((7-methyl-6-azaspiro[3.4]octan-6-yl)sulfonyl)quinoline] the figure was 2.82 µM.

With `CCC1CC2(CCC2)CN1S(=O)(=O)c1ccc2c(c1)S(=O)(=O)CC2` (single isomer, unassigned) [Example 62, 6-((7-Ethyl-6-azaspiro[3.4]octan-6-yl)sulfonyl)-2,3-dihydrobenzo[b]thiophene 1,1-dioxide], the IC50 at Cav2.3 [1] was 0.676 µM. The same measure, in the same setting: with `CCC1CC2(CCC2)CN1S(=O)(=O)c1ccc2c(c1)OC(F)(F)O2` (stereo not drawn) [Example 50, 6-((2,2-Difluorobenzo[d][1,3]dioxol-5-yl)sulfonyl)-7-ethyl-6-azaspiro[3.4]octane] the figure was 9.33 µM; with `CC1CC2(CCC2)CN1S(=O)(=O)c1cc2oc(=O)[nH]c2cc1Cl` (single isomer, unassigned) [Example 58, 5-chloro-6-((7-methyl-6-azaspiro[3.4]octan-6-yl)sulfonyl)benzo[d]oxazol-2(3H)-one], 11.5 µM; with `CC1CC2(CCC2)CN1S(=O)(=O)c1cc(-c2ccccc2)cs1` (stereo not drawn) [Example 44, 7-Methyl-6-((4-phenylthiophen-2-yl)sulfonyl)-6-azaspiro[3.4]octane], 6.76 µM.

For the molecule `CC1CC2(CCC2)CN1S(=O)(=O)c1ccc2ccoc2c1` (single isomer, unassigned) [Example 17, 6-(benzofuran-6-ylsulfonyl)-7-methyl-6-azaspiro[3.4]octane], the IC50 at Cav2.3 [1] was 1.32 µM. Same read-out and setting: under `O=S(=O)(c1cccs1)N1CC2(CCC2)CC1CO` (stereo not drawn) [Example 42, (6-(Thiophen-2-ylsulfonyl)-6-azaspiro[3.4]octan-7-yl)methanol] stands 24.5 µM; under `CC1CC2(CCC2)CN1S(=O)(=O)c1ccncc1` (single isomer, unassigned) [Example 12, 7-Methyl-6-(pyridin-4-ylsulfonyl)-6-azaspiro[3.4]octane], 6.61 µM; under `CC1CC2(CCC2)CN1S(=O)(=O)c1cncs1` (stereo not drawn) [Example 109, 5-((7-Methyl-6-azaspiro[3.4]octan-6-yl)sulfonyl)thiazole], 3.98 µM. Regarding `CC1CC2(CCC2)CN1S(=O)(=O)c1cc2oc(=O)[nH]c2cc1Cl` (stereo not drawn) [Example 56, 5-Chloro-6-((7-methyl-6-azaspiro[3.4]octan-6-yl)sulfonyl)benzo[d]oxazol-2(3H)-one], the IC50 at Cav2.3 [1] is 8.32 µM. Same read-out and setting: with `CC1CC2(CCC2)CN1S(=O)(=O)c1ccc(C#N)s1` (single isomer, unassigned) [Example 9, 5-((7-Methyl-6-azaspiro[3.4]octan-6-yl)sulfonyl)thiophene-2-carbonitrile] the figure was 7.94 µM.

Regarding `CCC1CC2(CCC2)CN1S(=O)(=O)c1ccnc(OC)c1` (stereo not drawn) [Example 87, 7-Ethyl-6-((2-methoxypyridin-4-yl)sulfonyl)-6-azaspiro[3.4]octane], at Cav2.3 [1], the IC50 is 2 µM. As to `CC1CC2(CCC2)CN1S(=O)(=O)c1cc2ccccc2o1` (stereo not drawn) [Example 66, 6-(Benzofuran-2-ylsulfonyl)-7-methyl-6-azaspiro[3.4]octane], at Cav2.3 [1], the IC50 is 9.12 µM. Same read-out and setting: with `CC1CC2(CCC2)CN1S(=O)(=O)c1ccc2ccccc2n1` (stereo not drawn) [Example 79, 2-((7-Methyl-6-azaspiro[3.4]octan-6-yl)sulfonyl)quinoline] the figure was 6.31 µM; with `CCC1CC2(CCC2)CN1S(=O)(=O)c1cccs1` (stereo not drawn) [Example 69, 7-Ethyl-6-(thiophen-2-ylsulfonyl)-6-azaspiro[3.4]octane], 2.51 µM.

As for `Cc1ccc(S(=O)(=O)N2CC3(CCC3)CC2C)o1` (stereo not drawn) [Example 53, 7-Methyl-6-((5-methylfuran-2-yl)sulfonyl)-6-azaspiro[3.4]octane], on Cav2.3 [1], the IC50 was 4.9 µM.

As to `CC1CC2(CCC2)CN1S(=O)(=O)c1ccc2c(c1)CN(C(=O)C(F)(F)F)CC2` (stereo not drawn) [Example 18, 2,2,2-Trifluoro-1-(7-((7-methyl-6-azaspiro[3.4]octan-6-yl)sulfonyl)-3,4-dihydroisoquinolin-2(1H)-yl)ethan-1-one], the IC50 at Cav2.3 [1] was 2.45 µM. The same measure, in the same setting: under `CC1CC2(CCC2)CN1S(=O)(=O)c1ccccc1` (single isomer, unassigned) [Example 46, 7-Methyl-6-(phenylsulfonyl)-6-azaspiro[3.4]octane] stands 7.76 µM; under `CC1CC2(CCC2)CN1S(=O)(=O)c1ccccn1` (stereo not drawn) [Example 48, 7-Methyl-6-(pyridin-2-ylsulfonyl)-6-azaspiro[3.4]octane], 15.8 µM. On the same count and under the same terms, with `CC1CC2(CCC2)CN1S(=O)(=O)c1ccco1` (single isomer, unassigned) [Example 37, 6-(Furan-2-ylsulfonyl)-7-methyl-6-azaspiro[3.4]octane] the figure was 7.94 µM; with `CC1CC2(CCC2)CN1S(=O)(=O)c1ccc2c(c1)COC2` (stereo not drawn) [Example 65, 6-((1,3-Dihydroisobenzofuran-5-yl)sulfonyl)-7-methyl-6-azaspiro[3.4]octane], 3.98 µM; with `CC1CC2(CCC2)CN1S(=O)(=O)c1cc2oc(=O)[nH]c2cc1Cl` (single isomer, unassigned) [Example 57, 5-Chloro-6-((7-methyl-6-azaspiro[3.4]octan-6-yl)sulfonyl)benzo[d]oxazol-2(3H)-one], 5.13 µM.
